Measurements as given in patent US20110129467A1, “THERAPEUTIC COMBINATION COMPRISING AN AURORA KINASE INHIBITOR AND ANTIPROLIFERATIVE AGENTS” (NERVIANO MEDICAL SCIENCES S.R.L., priority 2008, published 2011).
Read-outs that look alike come from different tables or passages of the source.

Key:
[1] = system: HL-60 human acute myeloid leukaemia cells; conditions: HL-60 sc in SCID mice; for T-C: delay vs control to reach 1 g
Protocol: The treatment started 12 days later tumor cells injection when tumors were palpable.
When combined, Compound 1 was administered in the interval between the bortezomib treatments at days 13, 14, 15, 17, 18, 19, 21, 22, 23, 25, 26 and 27. […] Tumor growth was assessed by caliper.

[2] = system: HL-60 human acute myeloid leukaemia cells; conditions: HL-60 model; previously demonstrated; cited from earlier work
[3] = system: DU145 prostate carcinoma cells; experiment: In vivo antitumor efficacy, DU145 prostate carcinoma subcutaneous xenograft in athymic mice; conditions: Compound 1 15 mg/kg ip BID, Bevacizumab 20 mg/kg ip days 9, 13, 17; for Time to reach 1 g / T-C: DU145 sc in athymic mice; for T-C: delay vs control to reach 1 g
Protocol: Balb, Nu\Nu male mice, from Harlan (Italy), were maintained in cages with paper filter cover, food and bedding sterilized and water acidified. 2.5×10^6 DU145 prostate carcinoma cells (from the American Type Culture Collection) were injected subcutaneously in athymic mice. […] The treatment started at day 9 after cell injection, when tumors were palpable with a tumor weight mean for all the groups of 0.15 g.
Bevacizumab was administered intraperitoneally in a volume of 10 ml/kg at the dose of 20 mg/kg on days 9, 13, 17 from the days of tumor cells injection. […] Tumor growth and body weight were measured every 3 days. Tumor growth was assessed by caliper. […] This delay (T-C value) was defined as the difference of time (in days) required for the treatment group (T) and the control group(C) tumors to reach a predetermined size (1 g). Toxicity was evaluated on the basis of body weight reduction.

[4] = system: DU145 prostate carcinoma cells; conditions: previously demonstrated (The Prostate 36: 1-10, 1998); cited from earlier work
[5] = Compound 1 15 mg/kg ip BID, Bortezomib 0.5 mg/kg iv days 12, 16, 20, 24
[6] = Bortezomib 1 mg/kg iv days 12, 16, 20, 24 (combination: + Compound 1 15 mg/kg ip)

Row | Molecule | Time to reach 1 g [1, 5] | T-C [1, 5] | effect on growth of the tumor model in vivo [2] | Time to reach 1 g [3] | T-C [3] | effect on angiogenesis and growth of the tumor model in vivo [4] | Toxicity ([3]; evaluated on body weight reduction) | Time to reach 1 g [1, 6] | T-C [1, 6]
1 | CO[C@@H](C(=O)N1Cc2[nH]nc(NC(=O)c3ccc(N4CCN(C)CC4)cc3)c2C1)c1ccccc1 [Compound 1, N-{5-[(2R)-2-methoxy-2-phenylethanoyl]-1,4,5,6-tetrahydropyrrolo[3,4-c]pyrazol-3-yl}-4-(4-methylpiperazin-1-yl)benzamide] | 24.7 days | 9.1 days | inhibits growth of the model in vivo | 23.9 days | 8.5 days |  |  |  | 
2 | Bevacizumab: antibody to vascular endothelial growth factor; marketed as Avastin |  |  |  | 18.5 days | 3.1 days | inhibits angiogenesis and growth of the model in vivo | 0/8 |  | 
3 | CC(C)C[C@H](NC(=O)[C@H](Cc1ccccc1)NC(=O)c1cnccn1)B(O)O [Bortezomib] | 19 days | 3.4 days |  |  |  |  |  | 23.8 days | 8.2 days
